Assay: Solubility in a solvent (qualitative)
Type: physicochemical
[1] = dichloromethane (methylene chloride)

solubility in a solvent (benzene) | solubility in a solvent (chloroform) | solubility in a solvent [1] | solubility in a solvent (diethyl ether) | solubility in a solvent (toluene) | solubility in a solvent (acetone) | solubility in a solvent (acetonitrile) | solubility in a solvent (hexane) | solubility in a solvent (methanol) | solubility in a solvent (water) | Compound
soluble | readily soluble | readily soluble | soluble | soluble | – | – | – | – | – | Cc1ccn[n]1[Pt-2]([n]1nccc1C)([n+]1[nH]ccc1C)[n+]1[nH]ccc1C.Cc1ccn[n]1[Pt-2]([n]1nccc1C)([n+]1[nH]ccc1C)[n+]1[nH]ccc1C [[{Pt(3-Mepz)2(3-MepzH)2}2]]
– | readily soluble | readily soluble | – | – | soluble | – | soluble | soluble | – | CC(C)(C)c1cc[n-]n1.CC(C)(C)c1cc[n-]n1.CC(C)(C)c1cc[nH]n1.CC(C)(C)c1cc[nH]n1.[Pt+2] [[Pt(3-^tBupz)2(3-^tBupzH)2]]
highly soluble | extremely highly soluble | extremely highly soluble | moderately soluble | highly soluble | not soluble | moderately soluble | – | not soluble | not soluble | Cc1cc(C)[n]([Pt-2]([n]2nc(C)cc2C)([n+]2[nH]c(C)cc2C)[n+]2[nH]c(C)cc2C)n1.Cc1cc(C)[n]([Pt-2]([n]2nc(C)cc2C)([n+]2[nH]c(C)cc2C)[n+]2[nH]c(C)cc2C)n1 [[{Pt(dmpz)2(dmpzH)2}2]]
soluble | readily soluble | readily soluble | – | soluble | readily soluble | soluble | – | – | – | [Cl][Pt-2]([n]1nc(-c2ccccc2)cc1-c1ccccc1)([n+]1[nH]c(-c2ccccc2)cc1-c1ccccc1)[n+]1[nH]c(-c2ccccc2)cc1-c1ccccc1 [[PtCl(dppz)(dppzH)2]]
– | readily soluble | readily soluble | – | soluble | – | – | – | soluble | – | CC(C)(C)c1ccn[nH]1.CC(C)(C)c1ccn[nH]1.CC(C)(C)c1ccn[nH]1.CC(C)(C)c1ccn[nH]1.[Cl-].[Cl-].[Pt+2] [[Pt(3-^tBupzH)4]Cl2]

The next lines start with the molecule.

Compound | solubility in a solvent (benzene) | solubility in a solvent (chloroform) | solubility in a solvent [1] | solubility in a solvent (diethyl ether) | solubility in a solvent (toluene) | solubility in a solvent (acetone) | solubility in a solvent (acetonitrile) | solubility in a solvent (hexane) | solubility in a solvent (methanol) | solubility in a solvent (water)
Cc1cc(C)[n+]2[n]1[Pt-2]13[n]4c(C)cc(C)[n+]4[Ag-][n]4c(C)cc(C)[n+]4[Pt-2]([n]4c(C)cc(C)[n+]4[Ag-][n]4c(C)cc(C)[n+]41)([n]1c(C)cc(C)[n+]1[Ag-][n]1c(C)cc(C)[n+]13)[n+]1c(C)cc(C)[n]1[Ag-]2 [[Pt2Ag4(μ-dmpz)8]] | highly soluble | extremely highly soluble | extremely highly soluble | – | highly soluble | not soluble | moderately soluble | moderately soluble | not soluble | –
c1ccc(-c2cc(-c3ccccc3)[n+]3[n]2[Pt-2]24[Cl+][Ag-][n]5c(-c6ccccc6)cc(-c6ccccc6)[n+]5[Pt-2]([Cl+][Ag-][n]5c(-c6ccccc6)cc(-c6ccccc6)[n+]52)([n]2c(-c5ccccc5)cc(-c5ccccc5)[n+]2[Ag-][n]2c(-c5ccccc5)cc(-c5ccccc5)[n+]24)[n+]2c(-c4ccccc4)cc(-c4ccccc4)[n]2[Ag-]3)cc1 [[Pt2Ag4(μ-Cl)2(μ-dppz)6]] | soluble | readily soluble | readily soluble | – | soluble | – | slightly soluble | – | – | –
Cc1cc[n+]2[n]1[Pt-2]13[n]4c(C)cc[n+]4[Ag-][n]4ccc(C)[n+]4[Pt-2]([n]4c(C)cc[n+]4[Ag-][n]4ccc(C)[n+]41)([n]1c(C)cc[n+]1[Ag-][n]1ccc(C)[n+]13)[n+]1c(C)cc[n]1[Ag-]2 [[Pt2Ag4(μ-3-Mepz)8]] | slightly soluble | soluble | soluble | – | slightly soluble | – | slightly soluble | – | – | –
CC(C)(C)c1cc[n+]2[n]1[Ag-][n+]1c(C(C)(C)C)cc[n]1[Pt-2]13[n]4ccc(C(C)(C)C)[n+]4[Ag-][n]4c(C(C)(C)C)cc[n+]4[Pt-2]2([n]2ccc(C(C)(C)C)[n+]2[Ag-][n]2c(C(C)(C)C)cc[n+]21)[n]1ccc(C(C)(C)C)[n+]1[Ag-][n]1c(C(C)(C)C)cc[n+]13 [[Pt2Ag4(μ-3-^tBupz)8]] | – | readily soluble | readily soluble | – | – | – | – | – | – | –
Cc1cc(C)[n+]2[n]1[Pt-2]13[n]4c(C)cc(C)[n+]4[Cu-][n]4c(C)cc(C)[n+]4[Pt-2]([n]4c(C)cc(C)[n+]4[Cu-][n]4c(C)cc(C)[n+]41)([n]1c(C)cc(C)[n+]1[Cu-][n]1c(C)cc(C)[n+]13)[n+]1c(C)cc(C)[n]1[Cu-]2 [[Pt2Cu4(μ-dmpz)8]] | – | soluble | soluble | slightly soluble | poorly soluble | slightly soluble | poorly soluble | – | poorly soluble | –
CC(C)(C)c1cc[n+]2[n]1[Cu-][n+]1c(C(C)(C)C)cc[n]1[Pt-2]13[n]4ccc(C(C)(C)C)[n+]4[Cu-][n]4c(C(C)(C)C)cc[n+]4[Pt-2]2([n]2ccc(C(C)(C)C)[n+]2[Cu-][n]2c(C(C)(C)C)cc[n+]21)[n]1ccc(C(C)(C)C)[n+]1[Cu-][n]1c(C(C)(C)C)cc[n+]13 [[Pt2Cu4(μ-3-^tBupz)8]] | – | soluble | soluble | – | – | – | – | – | – | –
